Ends that are not written are not given here.
Tests used:
PC-3 cells [1] = experiment: Colony formation of PC-3 cells in soft agar; format: cell-based, human; conditions: 5 μM; 12 days
Experimental: To confirm the inhibition of the cell growth observed on plastic with the PC-3 cells, the inventors tested the effect of dermaseptin B2 on the ability of the PC-3 cells to multiply independently of anchoring by forming colonies in agar. For this assay, the cells were seeded at a density of 2.5×10^3 cells par cm^2 diluted in complete culture medium (RPMI supplemented with 5% foetal calf serum) containing 0.35% agar and varying concentrations of dermaseptin B2, in 12-well dishes containing 1 ml of solidified 0.6% agar. The same variable concentrations of dermaseptin B2 were also added to the complete culture medium deposited on top of the cultures on the day of seeding, and twice per week. After incubation for 12 days at 37° C. in an incubator saturated with water vapour and containing 7% CO2, the colonies having a diameter larger than […] were counted. Each measurement was performed in triplicate and each experiment was repeated three times.

PC-3 cells [2] = experiment: Annexin V FITC / propidium iodide double labelling, flow cytometry; format: cell-based, human; conditions: 2.5 μM
Source text: During the proliferation assays of PC-3 or ABAE cells, in the presence of dermaseptin B2, the rapidly observed inhibitor effect and the non-refringence of the treated cells leads to assuming that dermaseptin B2 could have a cytotoxic role or cell death inducing role rather than blocking the growth of sensitive cells. To determine whether dermaseptin B2 could induce apoptosis of sensitive cells, the inventors conducted double labelling experiments with Annexin V and propidium iodide on PC-3 cells in culture on plastic and treated or not treated with dermaseptin B2. These experiments were followed by flow cytometry analysis of the labelled cells.
For this purpose, the cells were seeded in 6-well plates in the absence or presence of 2.5 μM of dermaseptin B2 for 24 or 72 hours. The cells were then detached, washed with cold PBS and re-suspended in 100 μl of fixing buffer (MACs, Miltenyi Biotec) containing Annexin V FITC for 10 min in the dark. After washings in PBS, the cells were again labelled by incubation in a fixing buffer containing a final concentration of 1 μg/ml of propidium iodide (PI) for 5 min in the dark. After further washings the cells were analyzed by passing through a flow cytometer (FACScan, Becton Dickinson Labware) (FIGS. 10 and 11).

mouse embryo cells (CES) = test system: mouse embryo cells (CES)
Experimental: (§1) The anti-proliferative activity of dermaseptin B2 was assessed in vitro on different types of cells: PC-3 adenocarcinoma cells and G1947 human prostatic hyperplasia cells, and on mouse embryo cells (CES). The different types of cells were seeded in 24-well plates at […] in 0.5 ml of culture medium (RPMI supplemented with 5% foetal calf serum for the PC-3 and G1947 cells, or DMEM supplemented with 10% foetal calf serum for the CES cells). After 24 hours, the cells were treated with different doses of dermaseptin B2. The treatment was then renewed at days 3 and 5 after seeding of the cells. On the 6th day, an estimated cell count was performed by staining with crystal violet. The cells were rinsed with PBS, fixed on plastic by dehydration with absolute ethanol, and then stained with a 0.2% solution of crystal violet in 2% ethanol for 15 min. After washing, the cells were solubilised with 1% SDS solution. The optical density (OD) of the crystal violet was measured using a spectrophotometer at 595 nm. A standard range was produced for conversion of OD-number of cells.

[3] = test system: G1947 human prostatic hyperplasia cells
Experimental: as §1

[4] = test system: Gram+ and Gram− bacteria, yeasts, protozoa and filamentous fungi; conditions: micromolar doses; cited from earlier work
Raji cells = experiment: Growth of non-adherent B-lymphoma line Raji, crystal violet cell count; format: cell-based, human; conditions: 10 μM; count on 7th day
Experimental: (§2) Dermaseptin B2 was also tested on the growth of two non-adherent lines derived from human B-lymphoma: the Raji and LB-EBV lines. The cells were seeded at 10^4 cells per well in 0.5 ml of RPMI medium supplemented with 2.5% of decomplemented foetal calf serum. 24 hours after seeding, the cells were treated with different concentrations of dermaseptin B2. […] On the 7th day, the cell count was estimated by staining with crystal violet as described previously.

[5] = test system: adult bovine aortic endothelial cells (ABAE); experiment: Proliferation of ABAE endothelial cells on plastic; format: cell-based; conditions: with 5 ng/ml FGF-2; count on 7th day
Experimental: The angiostatic activity of dermaseptin B2 was assessed for its capacity to inhibit firstly the proliferation of adult bovine aortic endothelial cells (ABAE) on plastic and secondly the formation of pseudo capillaries by these same cells in collagen gel. For the proliferation test the ABAE cells were seeded in 24-well plates at a density of 10^4 cells/well in DMEM medium supplemented with 10% foetal calf serum and 5 ng/ml of FGF-2. […] On the 7th day the cell count was estimated by staining with crystal violet.

LB-EBV cells = experiment: Growth of non-adherent B-lymphoma line LB-EBV, crystal violet cell count; format: cell-based, human; conditions: 10 μM; count on 7th day
Experimental: as §2

ABAE cells = experiment: Formation of pseudo capillaries by ABAE cells on collagen 1 gel (Montessano test); format: cell-based, bovine; conditions: 5 μM
Experimental: The effect of dermaseptin B2 on the formation of pseudo capillaries was assessed through use of the Montessano test. This test allows evaluation of the differentiation of ABAE cells to pseudo capillaries when seeded in a monolayer on collagen 1 gel. For this assay, ABAE cells were seeded in 24-well plates on a monolayer of collagen 1 to the proportion of 10^5 cells/well in DMEM medium supplemented with 10% foetal calf serum. 24 hours after seeding, 20 ng/ml of FGF-2 were added to the cells in the absence or presence of varying concentrations of dermaseptin B2. This treatment was renewed for two days and the formation of a network of pseudo capillaries was assessed 24 hours later by observation under phase contrast microscope measuring the number of capillaries formed per field of observation (FIGS. 5C and D).

[6] = test system: tumours induced by injection of PC-3; experiment: Growth of PC-3 xenograft tumours in nude mice; format: in vivo
Experimental: Batches of 10 nude mice (nude/nude, Laboratoire IFFA CREDO) were injected with 2×10^6 PC-3 cells. One week after injection of the cells, the animals having a palpable tumour were randomly distributed per cage to be treated by injection into the tumour with 100 μl per day of PBS solution (control batch) or with a solution of dermaseptin B2 diluted in PBS. Dermaseptin B2 was injected at a concentration of 5 mg/kg the first week of treatment, then this dose was reduced to 0.5 mg/kg for 12 days. […] As control, a batch of mice was also treated with Taxol® (paclitaxel, Bristol-Myers Squibb) twice per week via intra-peritoneal injection at 10 mg/kg. The size of the tumours was measured using a calliper twice a week up until sacrifice of the animals 29 days after the beginning of treatment. After sacrifice, the tumours were removed and weighed.

receptor of adenosin A1 = conditions: cited from earlier work

Molecule | growth of PC-3 cells on soft agar (colonies) (PC-3 cells [1]) | increase of percentage of cells labelled solely with PI (necrosis) (PC-3 cells [2]) [times] | increase in cells labelled twofold with Annexin V and PI (apoptosis) (PC-3 cells [2]; 24 h) | increase of percentage of cells only labelled with Annexin V (early apoptosis) (PC-3 cells [2]; 24 h) [times] | percentage of non-labelled cells (PC-3 cells [2]; 24 h) | percentage of cells labelled twofold with Annexin V and PI, 72 h versus 24 h (PC-3 cells [2]; 72 h) | cell detachment during treatment, embryo (CES) cells (mouse embryo cells (CES)) | cell detachment during treatment, G1947 cells [3] | killing of Gram+ and Gram− bacteria, yeasts, protozoa and filamentous fungi [4] | inhibition of growth of Raji cells (Raji cells) | inhibition of growth of ABAE cells [5] | inhibition of growth of LB-EBV cells (LB-EBV cells) | formation of pseudo capillaries induced by FGF-2 (ABAE cells; 20 ng/ml FGF-2) | cytotoxic effect on the monolayer of ABAE cells (ABAE cells; pseudo capillary assay) | mice with full disappearance of the tumour ([6]; batches of 10 mice, after sacrifice at day 29) [mice] | effect on binding of agonists with the receptor of adenosin A1 (receptor of adenosin A1) | inhibition of tumour growth (tumour volume) compared with non-treated tumours ([6]; intra-peritoneal 10 mg/kg twice per week, 29 days of treatment) [%]
GLWSKIKEVGKEAAKAAAKAAGKAALGAVSEAV [dermaseptin B2] | fully inhibits growth | 3 | about 30% | 5 | dropped suddenly in the same proportions | does not change | no cell detachment was observed | no cell detachment was observed | rapidly kills | about 95 | dose-dependent and full inhibition | about 95 | strongly inhibits | did not have any cytotoxic effect | 3 | increase the binding of agonists | 
CC(=O)O[C@H]1C(=O)[C@@]2(C)[C@H]([C@H](OC(=O)c3ccccc3)[C@]3(O)C[C@H](OC(=O)[C@H](O)[C@@H](NC(=O)c4ccccc4)c4ccccc4)C(C)=C1C3(C)C)[C@]1(OC(C)=O)CO[C@@H]1C[C@@H]2O [Taxol®, paclitaxel, reference compound] |  |  |  |  |  |  |  |  |  |  |  |  |  |  |  |  | 36
